Here are results for 19 compounds from patent US8633245B2, “PAI-1 inhibitor” (Institute of Medicinal Molecular Design, Inc., priority 2008, dated 2014).

Holding throughout (format): biochemical
In assay [1] the target is T1, recombinant human PAI-1 (Homo sapiens, UniProt P05121).
T1 construct: purchased Molecular Innovations, Inc
Briefly: Test Example 2: human PAI-1 inhibitory activity (tPA fluorogenic substrate, pH 7.4 HEPES buffer). As to the method:
0.1 M HEPES, 0.1 M NaCl. 1 mM EDTA. 0.1% Polyethylene glycol 8,000 (Hampton Research Corporation),
2 mM Dimethyldecylphoshine oxide [Apo-10] (Fluka Corporation)

The next assay addresses T2, recombinant rat PAI-1 (Rattus norvegicus, UniProt P20961).
T2 construct: purchased Molecular Innovations, Inc
T2 sequence (P20961 24-402): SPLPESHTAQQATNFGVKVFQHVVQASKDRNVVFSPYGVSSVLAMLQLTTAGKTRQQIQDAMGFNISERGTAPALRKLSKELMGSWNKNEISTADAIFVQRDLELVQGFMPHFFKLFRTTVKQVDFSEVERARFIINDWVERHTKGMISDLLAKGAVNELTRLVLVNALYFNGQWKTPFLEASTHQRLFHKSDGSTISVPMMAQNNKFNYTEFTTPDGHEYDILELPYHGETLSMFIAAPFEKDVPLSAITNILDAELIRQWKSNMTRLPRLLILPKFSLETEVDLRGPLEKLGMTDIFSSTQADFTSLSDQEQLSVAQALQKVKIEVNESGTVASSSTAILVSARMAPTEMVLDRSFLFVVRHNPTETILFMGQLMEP
Briefly: Test Example 3: rat PAI-1 inhibitory activity (as Test Example 2 with rat PAI-1). The conditions noted are these: rat PAI-1; calculated from the inhibition rates.

In assay [2] the target is T1, recombinant human PAI-1. The assay is described as follows: Test Example 1: human PAI-1 inhibitory activity (tPA fluorogenic substrate, pH 7.5 Tris buffer). The conditions noted are these: Tris buffer. As for the experimental part: 50 mM Tris, 150 mM NaCl, 10 μg/ml BSA, 0.01% Tween80 (SIGMA-ALDRICH Corporation)

T1 sequence (P05121 24-402): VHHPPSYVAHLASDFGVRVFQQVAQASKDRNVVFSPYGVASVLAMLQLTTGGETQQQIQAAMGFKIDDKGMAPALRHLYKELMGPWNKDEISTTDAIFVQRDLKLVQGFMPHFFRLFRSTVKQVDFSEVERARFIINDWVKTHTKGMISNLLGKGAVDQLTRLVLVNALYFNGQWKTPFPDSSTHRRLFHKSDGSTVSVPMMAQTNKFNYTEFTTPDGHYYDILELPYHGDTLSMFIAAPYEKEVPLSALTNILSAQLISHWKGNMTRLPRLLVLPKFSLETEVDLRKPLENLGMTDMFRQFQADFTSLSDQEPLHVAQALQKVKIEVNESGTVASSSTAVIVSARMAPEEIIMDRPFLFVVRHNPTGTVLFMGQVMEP
Method for recombinant rat PAI-1: To this solution, 6 μl of 80 nM recombinant human PAI-1 (Molecular Innovations, Inc.) solution prepared with Tris buffer was added, and the plate was incubated for 5 minutes at room temperature. Furthermore, 30 μl of 800 IU/ml two-chain tPA (Activity Standard; American diagnostica, inc.) prepared with Tris buffer was added, and the mixed solution was incubated for 15 minutes at room temperature. Then, 30 μl of 400 μM fluorogenic substrate (Pyr-Gly-Arg-MCA; Peptide Institute, Inc.) for tPA prepared with Tris buffer was added and reacted for 30 minutes at room temperature.

In the case of `CC(C)(C)c1ccc(C(c2ccccc2)N(C(=O)C(=O)O)c2ccc(-c3ccc(OC(F)(F)F)cc3)cc2)cc1` (stereo not drawn) [Compound 222], the half-maximal inhibitory concentration (IC50) on recombinant human PAI-1 [1] (human PAI-1, calculated from the inhibition rates) is 1.06 µM; on recombinant rat PAI-1 it was 1.34 µM. Besides, the inhibition at 3 µM at recombinant human PAI-1 [1] (read-out: Inhibition Rate of PAI-1 Activity (%)) is over 99%.

Regarding `CC(C)(Nc1cc(-c2ccc(OC(F)(F)F)cc2)ccc1OCc1ccc(C(C)(C)C)cc1)C(=O)O` [Compound 420], the figures for the “Inhibition Rate of PAI-1 Activity (%)” value on recombinant human PAI-1 [2] (Compound Concentration 5 μM), on recombinant human PAI-1 [2] (Compound Concentration 10 μM) and at recombinant human PAI-1 [2] (Compound Concentration 25 μM) were 42%, 64% and 83%, respectively.

Take `CC(C)(C)c1ccc(COc2ccc(-c3ccc(OC(F)(F)F)cc3)cc2NCC(=O)O)cc1` [Compound 539]: the “Inhibition Rate of PAI-1 Activity (%)” value is listed as 14% on recombinant human PAI-1 [2] (Compound Concentration 5 μM), 34% at recombinant human PAI-1 [2] (Compound Concentration 10 μM) and 65% on recombinant human PAI-1 [2] (Compound Concentration 25 μM).

Take `CC(C)(C)c1ccc(-c2ccc(Oc3ccc(-c4ccc(OC(F)(F)F)cc4)cc3/C=C/C(=O)O)c(CCC(=O)O)c2)cc1` [Compound 540]: the “Inhibition Rate of PAI-1 Activity (%)” value at recombinant human PAI-1 [2] (Compound Concentration 5 μM) came out at 75%; on recombinant human PAI-1 [2] (Compound Concentration 10 μM), 91%; at recombinant human PAI-1 [2] (Compound Concentration 25 μM) it was 91%.

For `CC(C)(C)c1ccc(-c2ccc(Oc3ccc(-c4ccc(OC(F)(F)F)cc4)cc3CCC(=O)O)c(CCC(=O)O)c2)cc1` [Compound 541], the “Inhibition Rate of PAI-1 Activity (%)” value on recombinant human PAI-1 [2] (Compound Concentration 5 μM) was 77%; on recombinant human PAI-1 [2] (Compound Concentration 10 μM), 93%; on recombinant human PAI-1 [2] (Compound Concentration 25 μM), over 99%.

Consider `CC(C)(C)c1ccc(Oc2ccc(-c3ccc(OC(F)(F)F)cc3)cc2CCC(=O)O)c(CCC(=O)O)c1` [Compound 542], for which the “Inhibition Rate of PAI-1 Activity (%)” value on recombinant human PAI-1 [2] (Compound Concentration 0.5 μM) is 0%; at recombinant human PAI-1 [2] (Compound Concentration 1 μM) it was 14%; on recombinant human PAI-1 [2] (Compound Concentration 5 μM) it was 67%.

Consider `CC(C)(C)c1ccc(COc2cc(-c3ccc(OC(F)(F)F)cc3)cc(O)c2OCC(=O)O)cc1` [Compound 546], for which the “Inhibition Rate of PAI-1 Activity (%)” value on recombinant human PAI-1 [2] (Compound Concentration 0.5 μM) was 4%; at recombinant human PAI-1 [2] (Compound Concentration 1 μM), 14%; on recombinant human PAI-1 [2] (Compound Concentration 5 μM) it was 61%.

For the compound `CC(C)(C)c1ccc(CN(C(=O)CCC(=O)O)c2ccc(-c3ccc(OC(F)(F)F)cc3)cc2)cc1` [Compound 609], the “Inhibition Rate of PAI-1 Activity (%)” value was 38% at recombinant human PAI-1 [2] (Compound Concentration 5 μM), 69% at recombinant human PAI-1 [2] (Compound Concentration 10 μM) and over 99% at recombinant human PAI-1 [2] (Compound Concentration 25 μM).

`CC(C)(C)c1ccc(CN(C(=O)C(=O)O)c2ccc(OCc3ccc(OC(F)(F)F)cc3)cc2)cc1` [Compound 616]: the results for the “Inhibition Rate of PAI-1 Activity (%)” value on recombinant human PAI-1 [2] (Compound Concentration 5 μM), at recombinant human PAI-1 [2] (Compound Concentration 10 μM) and on recombinant human PAI-1 [2] (Compound Concentration 25 μM) were 49%, 83% and 96%, respectively.

For `CC(C)(C)c1ccc(CN(C(=O)C(=O)O)c2cccc(OCc3ccc(OC(F)(F)F)cc3)c2)cc1` [Compound 619], the results for the “Inhibition Rate of PAI-1 Activity (%)” value at recombinant human PAI-1 [2] (Compound Concentration 5 μM), on recombinant human PAI-1 [2] (Compound Concentration 10 μM) and at recombinant human PAI-1 [2] (Compound Concentration 25 μM) were 48%, 83% and 92%, respectively.

In the case of `CC(C)(C)c1ccc(CN(C(=O)C(=O)O)c2ccccc2OCc2ccc(OC(F)(F)F)cc2)cc1` [Compound 620], the figures for the “Inhibition Rate of PAI-1 Activity (%)” value at recombinant human PAI-1 [2] (Compound Concentration 5 μM), at recombinant human PAI-1 [2] (Compound Concentration 10 μM) and on recombinant human PAI-1 [2] (Compound Concentration 25 μM) were 41%, 77% and 95%, respectively.

For `CC(C)(C)c1ccc(CN(C(=O)C(=O)O)c2ccc(Sc3ccc(OC(F)(F)F)cc3)cc2)cc1` [Compound 621], the “Inhibition Rate of PAI-1 Activity (%)” value is on record as 67% at recombinant human PAI-1 [2] (Compound Concentration 5 μM), 95% at recombinant human PAI-1 [2] (Compound Concentration 10 μM) and 91% on recombinant human PAI-1 [2] (Compound Concentration 25 μM).

For the compound `CC(C)(C)c1ccc(CN(C(=O)C(=O)O)c2ccc(OCc3ccc(OC(F)(F)F)cc3)c(OCc3ccc(OC(F)(F)F)cc3)c2)cc1` [Compound 622], the figures for the “Inhibition Rate of PAI-1 Activity (%)” value at recombinant human PAI-1 [2] (Compound Concentration 5 μM), on recombinant human PAI-1 [2] (Compound Concentration 10 μM) and on recombinant human PAI-1 [2] (Compound Concentration 25 μM) were 44%, 72% and 88%, respectively.

As for `CN(C(=O)C(=O)O)c1ccc(OCc2ccc(OC(F)(F)F)cc2)c(OCc2ccc(OC(F)(F)F)cc2)c1` [Compound 623], the “Inhibition Rate of PAI-1 Activity (%)” value on recombinant human PAI-1 [2] (Compound Concentration 5 μM) turned out to be 22%; at recombinant human PAI-1 [2] (Compound Concentration 10 μM), 41%; on recombinant human PAI-1 [2] (Compound Concentration 25 μM), 87%.

Consider `Cc1ccc(N(Cc2ccc(C(C)(C)C)cc2)C(=O)C(=O)O)cc1OCc1ccc(OC(F)(F)F)cc1` [Compound 625], for which the entries for the “Inhibition Rate of PAI-1 Activity (%)” value on recombinant human PAI-1 [2] (Compound Concentration 5 μM), at recombinant human PAI-1 [2] (Compound Concentration 10 μM) and at recombinant human PAI-1 [2] (Compound Concentration 25 μM) were 59%, 92% and 91%, respectively.

With `CC(C)(C)c1ccc(CN(C(=O)C(=O)O)c2ccc(Nc3ccc(OC(F)(F)F)cc3)cc2)cc1` [Compound 626], the “Inhibition Rate of PAI-1 Activity (%)” value was determined as 42% on recombinant human PAI-1 [2] (Compound Concentration 5 μM), 77% at recombinant human PAI-1 [2] (Compound Concentration 10 μM) and 97% at recombinant human PAI-1 [2] (Compound Concentration 25 μM).

For the compound `CC(C)(C)c1ccc(CN(C(=O)C(=O)O)c2ccc(Cl)c(OCc3ccc(OC(F)(F)F)cc3)c2)cc1` [Compound 629], the “Inhibition Rate of PAI-1 Activity (%)” value stood at 62% on recombinant human PAI-1 [2] (Compound Concentration 5 μM), 92% on recombinant human PAI-1 [2] (Compound Concentration 10 μM) and 88% at recombinant human PAI-1 [2] (Compound Concentration 25 μM).

As for `CC(C)(C)c1ccc(CN(C(=O)C(=O)O)c2ccc(SCc3ccc(OC(F)(F)F)cc3)cc2)cc1` [Compound 630], the results for the “Inhibition Rate of PAI-1 Activity (%)” value at recombinant human PAI-1 [2] (Compound Concentration 5 μM), on recombinant human PAI-1 [2] (Compound Concentration 10 μM) and at recombinant human PAI-1 [2] (Compound Concentration 25 μM) were 56%, 89% and 88%, respectively.

In the case of `CC(C)(C)c1ccc(CN(C(=O)C(=O)O)c2ccccc2Sc2ccc(OC(F)(F)F)cc2)cc1` [Compound 631], the “Inhibition Rate of PAI-1 Activity (%)” value came to 58% at recombinant human PAI-1 [2] (Compound Concentration 5 μM), 86% at recombinant human PAI-1 [2] (Compound Concentration 10 μM) and 86% on recombinant human PAI-1 [2] (Compound Concentration 25 μM).
